From US11000708B2 (priority 2015, dated 2021)
Read-outs that look alike come from different tables or passages of the source.

How the values were obtained:
[1] = tested on: M. tuberculosis H37Rv (ATCC 27294); details: reported abroad; cited from earlier work
[2] = tested on: Mycobacterium tuberculosis; details: against Mycobacterium tuberculosis; reported domestically; cited from earlier work
drug-resistant bacteria = details: reported domestically; cited from earlier work
[3] = tested on: sensitive Mycobacterium tuberculosis; details: reported domestically; cited from earlier work
[4] = tested on: Mycobacterium tuberculosis standard strains H37Rv; details: quality control H37Rv

Compound: CC[C@H]1OC(=O)[C@H](C)[C@@H](O[C@H]2C[C@@](C)(OC)[C@@H](O)[C@H](C)O2)[C@H](C)[C@@H](O[C@@H]2O[C@H](C)C[C@H](N(C)C)[C@H]2O)[C@](C)(O)C[C@@H](C)CN(C)[C@H](C)[C@@H](O)[C@]1(C)O [azithromycin]
- MIC [1]: 95 micrograms/milliliter
- MIC [2]: 128 micrograms/milliliter

Compound: CC[C@H]1OC(=O)[C@H](C)[C@@H](O[C@H]2C[C@@](C)(OC)[C@@H](O)[C@H](C)O2)[C@H](C)[C@@H](O[C@@H]2O[C@H](C)C[C@H](N(C)C)[C@H]2O)[C@](C)(OC)C[C@@H](C)C(=O)[C@H](C)[C@@H](O)[C@]1(C)O [clarithromycin]
- MIC [1]: 6 micrograms/milliliter
- MIC (drug-resistant bacteria): 2.0-32 micrograms/milliliter
- MIC [3]: 0.25-2.0 micrograms/milliliter

Compound: CC[C@H]1OC(=O)[C@H](C)[C@@H](O[C@H]2C[C@@](C)(OC)[C@@H](O)[C@H](C)O2)[C@H](C)[C@@H](O[C@@H]2O[C@H](C)C[C@H](N(C)C)[C@H]2O)[C@](C)(O)C[C@@H](C)/C(=N\OCOCCOC)[C@H](C)[C@@H](O)[C@]1(C)O [roxithromycin]
- MIC [1]: greater than or equal to 64 micrograms/milliliter

Compound: CC[C@H]1OC(=O)C[C@@H](O)[C@H](C)[C@@H](O[C@@H]2O[C@H](C)[C@@H](O[C@H]3C[C@@](C)(O)[C@@H](O)[C@H](C)O3)[C@H](N(C)C)[C@H]2O)[C@@H](CC=O)C[C@@H](C)C(=O)/C=C/C(C)=C/[C@@H]1CO[C@@H]1O[C@H](C)[C@@H](O)[C@@H](OC)[C@H]1OC [tylosin]
- MIC [1]: 58.6 micrograms/milliliter

Compound: carrimycin
- growth of bacterial colonies on drug-containing culture medium ([4]; carrimycin 1 μg/ml): 4+ (positive (4+) if the bacterial colonies closely grow on the slant face of the culture medium and account for ¾ or more of the area of the slant face)
- growth of bacterial colonies on drug-containing culture medium ([4]; carrimycin 20 μg/ml): −
